Reference: article PMC9413514, “Accessing Lipophilicity and Biomimetic Chromatography Profile of Biologically Active Ingredients of Botanicals Used in the Treatment of Inflammatory Bowel Disease” (Pharmaceuticals, 2022)

Key:
Type in all cases: physicochemical
[1] = C18-HPLC assay (hydrophobicity); conditions: for logk0 (HPLC hydrophobicity index, intercept of linear equation): Zorbax SB C18, PBS pH 7.4/methanol, extrapolated to zero organic modifier
Method: The principles of hydrophobicity determination by HPLC are characterized by the logarithm of retention factor (k), defined as logk = log (tR−t0)/t0, where tR is retention time of analyte and t0 is the dead time. […] The percentage of methanol in the mobile phase was optimized so that the analytes had retention time between dead time and a maximum of 20 min keeping the analysis time as short as possible, and the peak shape acceptable (peak asymmetry factor were between 0.8 and 1.2). […] The HPLC hydrophobicity index, logk0, was determined by extrapolation of the organic modifier in the mobile phase to its zero concentration.
Stock solutions of analytes and calibration standards were prepared by dissolving 10 mg of each solute in 10 mL of methanol and kept at 4 °C. Working solutions were freshly prepared at the beginning of each day by dilution of the stock solutions to 100 μg/mL with methanol for TLC measurements or mobile phase for HPLC measurements. Before use, the samples were sonicated (Elmasonic XtraTT, Elma Schmidbauer) for 10 min at 25 °C and all working solutions were filtered through 0.2 µm polyethersulfone filters (Obrnuta faza). To protect analytes from photodegradation, the amber glass HPLC vials were used.
C18-HPLC assay was carried out at Agilent HPLC 1100 and Zorbax SB C18 chromatographic column (length 250 mm.6 mm, particle size 5 µm) by Agilent Technologies, while IAM-HPLC assay was conducted using IAM P.C.DD2 chromatographic column (length 50 mm, i.d. 3.0 mm, particle size […]) by Regis Technologies (Morton Grove, IL, USA). Retention data were collected at 25.0 ± 0.1 °C using isocratic method working with mobile phases, mixing the respective amounts of PBS (10 mM, pH 7.4) and methanol from 35% to 80% of organic solvent in 5% increment. Each mobile phase was shaken vigorously and filtrated through membrane filter, no. 66, diameter 47 mm, pore size 0.45 µm by Supelco and degassed by sonication 5 min before use. The injection volume was set at 10 µL, and the measurements were carried out at flow rate 1.0 mL/min. Natrium nitrate solution (0.1 mg/mL in mobile phase) was used as the marker of dead-time. The absorbance of the analytes during a chromatographic run was collected in the spectral range of 200–400 nm, and the detection wavelength for each analyte was the one providing the maximum peak height.

[2] = Miniaturized shake-flask method (n-octanol/PBS pH 7.4) with HPLC analysis; conditions: for logD at 1 h: n-octanol/PBS 20 mM pH 7.4, 25 °C, spread is RSD in %, read-out: log D7.4 ± RSD (%) (n = 3); for Δ log D7.4 (lower than curcumin): compared to curcumin
Method: Stock solution of biologically active ingredients of botanicals used in IBD treatment were prepared using dimethylsulfoxide in concentration of 2 mg/mL. Working solutions were prepared daily by dilution of the stock solutions with PBS (20 mM, pH 7.4) pre-saturated with n-octanol. Before the injection into the HPLC system all solutions were sonicated for 15 min at room temperature in Elmasonic XtraTT (Elma Schmidbauer, Singen, Germany) and filtered through 0.2 μm polyethersulfone filters (Obrnuta faza, Pazin, Croatia).
The pre-saturated solutions of n-octanol and PBS (20 mM, pH 7.4) were used for determination of logarithm of distribution coefficient (log D7.4). The n-octanol and aqueous phase (mixture 1:1, v/v) were mutually saturated for 24 h in an orbital shaker-incubator ES-20/60 (Biosan, Riga, Latvia) at 100 oscillations per min at 25.0 ± 0.1 °C. The prepared mixture was left resting for at least 12 h in the thermostat at 25.0 ± 0.1 °C to ensure complete separation of the two phases. Until analysis, separated saturated solutions were kept in refrigerator at 4 °C.
Shake-flask procedure was conducted in amber 2 mL HPLC vials. 300 μL of the working solution was added to 1500 μL of n-octanol pre-saturated with PBS. To prevent material loss due to volatilisation, the two-phase system nearly filled the entire volume of the test vessels. All n-octanol–buffer mixtures were first vortexed for 1 min and then shaken for 1 h (150 oscillations per min) at room temperature (25.0 ± 0.1 °C) to reach equilibrium and phase distribution. Afterward, the samples were centrifuged using a Z 326 K tabletop centrifuge (HERMLE Labortechnik, Wehingen, Germany) for 30 min at 4000× g and 25 °C to ensure that possible emulsions were removed.
After equilibration and phase separation, the aqueous phase of all samples was analysed on an Agilent HPLC 1100 (Agilent Technologies, Waldbronn, Germany) with diode array detection. Analysis was conducted with a Zorbax SB C18 column (length 150 mm, i.d. 4.6 mm, particle size 5 μm) by Agilent Technologies. 10 min chromatographic runs were performed at 25.0 ± 0.1 °C in isocratic mode using a methanol/water mixture (60/40, v/v) with addition of 0.1% of formic acid as mobile phase modifier at a flow rate of 1.0 mL/min. The mobile phase was filtered through a membrane filter, no. 66, diameter 47 mm, pore size 0.45 µm (Supelco, Bellefonte, PA, USA). The vials were placed in the rack on the autosampler at 25 °C. The injection volume was 10 µL, with a needle offset of 0.5 mm. To avoid any carryover of the analyte-containing n-octanol phase, the outside of the syringe was subsequently washed in methanol before injection. The absorbance of the analytes during a chromatographic run was collected in the spectral range 200–400 nm, and the detection wavelength for each analyte was the one providing the maximum peak height.

[3] = C18-TLC assay (hydrophobicity); conditions: for RM0 (TLC hydrophobicity index, intercept of linear equation): RP-18 TLC, PBS pH 7.4/methanol, extrapolated to zero organic modifier
Description: In TLC measurements RF value depends on the chemical structure of analyte and its interaction with stationary and mobile phase. […] As it was expected, with increase in the percentage of organic modifier in the mobile phase the increase in RF values can be seen with accompanied decrease in RM values expressed as RM = log(1/RF - 1). Measured RF values were in the range from 0.1 to 0.7 obtained in a wide range of mobile phase organic modifier concentrations. […] Increasing concentration of the organic modifier in the mobile phase caused a slower decrease in the RM values for less hydrophobic analytes than for more hydrophobic ones. […] Increase in the hydrophobicity within curcuminoids and andrographolides is related to increase in lipophilicity determined by shake-flask method (Table 3). Stock solutions of analytes and calibration standards were prepared by dissolving 10 mg of each solute in 10 mL of methanol and kept at 4 °C. Working solutions were freshly prepared at the beginning of each day by dilution of the stock solutions to 100 μg/mL with methanol for TLC measurements or mobile phase for HPLC measurements. Before use, the samples were sonicated (Elmasonic […]) for 10 min at 25 °C and all working solutions were filtered through 0.2 μm polyethersulfone filters (Obrnuta faza). To protect analytes from photodegradation, the amber glass HPLC vials were used. Analyses were carried out using a commercially available 10 cm x 20 cm RP-18 TLC plates with fluorescent indicator (Merck KGaA). 5 μL of each working solution ([…]) was applied to the plates as 5 mm bends, 10 mm from the lower edge and 15 mm from sides of plates. The mobile phases were prepared by mixing the respective amounts of PBS (20 mM, pH 7.4) and methanol from 50% to 80% of organic solvent in 5% increment. The vertical flat-bottom chamber ([…], Switzerland) with a stainless-steel lid was saturated with mobile phase for 30 min. The plates were developed to a distance of 9 cm at room temperature, dried in the open air for 5 min and visualized under λ = 254 nm UV light (UV Cabinet with Dual Wavelength UV lamp by Camag).

logk0 (HPLC hydrophobicity index, intercept of linear equation) [1]	logD at 1 h [2]	RM0 (TLC hydrophobicity index, intercept of linear equation) [3]	difference in logk0 values versus andrographolide ([1]; compared to andrographolide) [units]	Δ log D7.4 (increase compared to andrographolide) ([2]; compared to andrographolide) [units]	difference in RM0 values versus andrographolide ([3]; compared to andrographolide) [units]	SMILES	Δ log D7.4 (lower than curcumin) [2] [units]
y = −0.0271 x + 1.9065	1.32	y = −0.0302 x + 2.0908	–	–	–	C=C1CC[C@@H]2[C@](C)(CO)[C@H](O)CC[C@@]2(C)[C@@H]1C/C=C1/C(=O)OC[C@H]1O [Andrographolide, andrographolide]	–
y = −0.0359 x + 2.8595	1.51	y = −0.0334 x + 2.1672	0.95	0.19	0.08	C=C1CC[C@@H]2[C@](C)(CO[C@@H]3O[C@H](CO)[C@@H](O)[C@H](O)[C@H]3O)CCC[C@@]2(C)[C@@H]1CCC1=CCOC1=O [Neoandrographolide, neoandrographolide]	–
y = −0.0394 x + 3.4218	1.67	y = −0.0526 x + 4.4044	–	–	–	O=C(/C=C/C=C/c1ccc2c(c1)OCO2)N1CCCCC1 [Piperine, piperine]	–

Further lines, the compound ahead of its results:

SMILES	logk0 (HPLC hydrophobicity index, intercept of linear equation) [1]	logD at 1 h [2]	RM0 (TLC hydrophobicity index, intercept of linear equation) [3]	difference in logk0 values versus andrographolide ([1]; compared to andrographolide) [units]	Δ log D7.4 (increase compared to andrographolide) ([2]; compared to andrographolide) [units]	difference in RM0 values versus andrographolide ([3]; compared to andrographolide) [units]	Δ log D7.4 (lower than curcumin) [2] [units]
O=C(C=Cc1ccc(O)cc1)CC(=O)C=Cc1ccc(O)cc1 [Bisdemetoxycurcumin, bisdemetoxycurcumin]	y = −0.0447 x + 3.4174	1.72	y = −0.0503 x + 4.1751	–	–	–	0.22
COc1cc(/C=C/C(=O)CC(=O)/C=C/c2ccc(O)cc2)ccc1O [Demetoxycurcumin, demetoxycurcumin]	y = −0.0448 x + 3.4349	1.52	y = −0.0504 x + 4.1781	–	–	–	0.42
